In ChEMBL document CHEMBL3044736, “Synthesis, characterization, solvatochromic properties, and antimicrobial evaluation of 5-acetyl-2-thioxo-dihydro-pyrimidine-4,6-dione-based chalcones” (2013):
Converted amounts (≈) assume the structure as drawn.

What was measured:
Type in all cases: functional
Pseudomonas aeruginosa [1] = assay: Antimicrobial activity against Pseudomonas aeruginosa MTCC 1688 assessed as diameter of growth inhibition zone at 25 ug/ml after 18-24 hr by agar cup diffusion method; settings: read-out: DIZ
Staphylococcus aureus [2] = assay: Antimicrobial activity against Staphylococcus aureus MTCC 96 by agar cup diffusion method
Aspergillus clavatus [3] = assay: Antimicrobial activity against Aspergillus clavatus MTCC 1323 assessed as diameter of growth inhibition zone at 250 ug/ml after 48-96 hr by agar cup diffusion method; settings: read-out: DIZ
Pseudomonas aeruginosa [4] = assay: Antimicrobial activity against Pseudomonas aeruginosa MTCC 1688 assessed as diameter of growth inhibition zone at 250 ug/ml after 18-24 hr by agar cup diffusion method; settings: read-out: DIZ
Trichophyton rubrum [5] = assay: Antimicrobial activity against Trichophyton rubrum MTCC 296 assessed as diameter of growth inhibition zone at 25 ug/ml after 48-96 hr by agar cup diffusion method; settings: read-out: DIZ
Escherichia coli [6] = assay: Antimicrobial activity against Escherichia coli MTCC 443 assessed as diameter of growth inhibition zone at 25 ug/ml after 18-24 hr by agar cup diffusion method; settings: read-out: DIZ
Escherichia coli [7] = assay: Antimicrobial activity against Escherichia coli MTCC 443 assessed as diameter of growth inhibition zone at 250 ug/ml after 18-24 hr by agar cup diffusion method; settings: read-out: DIZ
Candida albicans [8] = assay: Antimicrobial activity against Candida albicans MTCC 227 by agar cup diffusion method
Klebsiella pneumoniae [9] = assay: Antimicrobial activity against Klebsiella pneumoniae MTCC 109 assessed as diameter of growth inhibition zone at 25 ug/ml after 18-24 hr by agar cup diffusion method; settings: read-out: DIZ
Staphylococcus aureus [10] = assay: Antimicrobial activity against Staphylococcus aureus MTCC 96 assessed as diameter of growth inhibition zone at 250 ug/ml after 18-24 hr by agar cup diffusion method; settings: read-out: DIZ
Streptococcus pyogenes [11] = assay: Antimicrobial activity against Streptococcus pyogenes MTCC 442 assessed as diameter of growth inhibition zone at 50 ug/ml after 18-24 hr by agar cup diffusion method; settings: read-out: DIZ
Pseudomonas aeruginosa [12] = assay: Antimicrobial activity against Pseudomonas aeruginosa MTCC 1688 by agar cup diffusion method
Klebsiella pneumoniae [13] = assay: Antimicrobial activity against Klebsiella pneumoniae MTCC 109 assessed as diameter of growth inhibition zone at 250 ug/ml after 18-24 hr by agar cup diffusion method; settings: read-out: DIZ
Aspergillus clavatus [14] = assay: Antimicrobial activity against Aspergillus clavatus MTCC 1323 assessed as diameter of growth inhibition zone at 50 ug/ml after 48-96 hr by agar cup diffusion method; settings: read-out: DIZ
Klebsiella pneumoniae [15] = assay: Antimicrobial activity against Klebsiella pneumoniae MTCC 109 by agar cup diffusion method
Streptococcus pyogenes [16] = assay: Antimicrobial activity against Streptococcus pyogenes MTCC 442 assessed as diameter of growth inhibition zone at 250 ug/ml after 18-24 hr by agar cup diffusion method; settings: read-out: DIZ
Penicillium [17] = assay: Antimicrobial activity against Penicillium wild strain assessed as diameter of growth inhibition zone at 100 ug/ml after 48-96 hr by agar cup diffusion method; settings: read-out: DIZ
Penicillium [18] = assay: Antimicrobial activity against Penicillium wild strain assessed as diameter of growth inhibition zone at 25 ug/ml after 48-96 hr by agar cup diffusion method; settings: read-out: DIZ
Trichophyton rubrum [19] = assay: Antimicrobial activity against Trichophyton rubrum MTCC 296 assessed as diameter of growth inhibition zone at 100 ug/ml after 48-96 hr by agar cup diffusion method; settings: read-out: DIZ
Escherichia coli [20] = assay: Antimicrobial activity against Escherichia coli MTCC 443 assessed as diameter of growth inhibition zone at 50 ug/ml after 18-24 hr by agar cup diffusion method; settings: read-out: DIZ
Aspergillus clavatus [21] = assay: Antimicrobial activity against Aspergillus clavatus MTCC 1323 assessed as diameter of growth inhibition zone at 25 ug/ml after 48-96 hr by agar cup diffusion method; settings: read-out: DIZ
Penicillium [22] = assay: Antimicrobial activity against Penicillium wild strain assessed as diameter of growth inhibition zone at 250 ug/ml after 48-96 hr by agar cup diffusion method; settings: read-out: DIZ
Escherichia coli [23] = assay: Antimicrobial activity against Escherichia coli MTCC 443 assessed as diameter of growth inhibition zone at 100 ug/ml after 18-24 hr by agar cup diffusion method; settings: read-out: DIZ
Trichophyton rubrum [24] = assay: Antimicrobial activity against Trichophyton rubrum MTCC 296 by agar cup diffusion method
Klebsiella pneumoniae [25] = assay: Antimicrobial activity against Klebsiella pneumoniae MTCC 109 assessed as diameter of growth inhibition zone at 100 ug/ml after 18-24 hr by agar cup diffusion method; settings: read-out: DIZ
Aspergillus clavatus [26] = assay: Antimicrobial activity against Aspergillus clavatus MTCC 1323 assessed as diameter of growth inhibition zone at 100 ug/ml after 48-96 hr by agar cup diffusion method; settings: read-out: DIZ
Staphylococcus aureus [27] = assay: Antimicrobial activity against Staphylococcus aureus MTCC 96 assessed as diameter of growth inhibition zone at 100 ug/ml after 18-24 hr by agar cup diffusion method; settings: read-out: DIZ
Streptococcus pyogenes [28] = assay: Antimicrobial activity against Streptococcus pyogenes MTCC 442 assessed as diameter of growth inhibition zone at 100 ug/ml after 18-24 hr by agar cup diffusion method; settings: read-out: DIZ
Trichophyton rubrum [29] = assay: Antimicrobial activity against Trichophyton rubrum MTCC 296 assessed as diameter of growth inhibition zone at 250 ug/ml after 48-96 hr by agar cup diffusion method; settings: read-out: DIZ
Candida albicans [30] = assay: Antimicrobial activity against Candida albicans MTCC 227 assessed as diameter of growth inhibition zone at 100 ug/ml after 48-96 hr by agar cup diffusion method; settings: read-out: DIZ
Aspergillus clavatus [31] = assay: Antimicrobial activity against Aspergillus clavatus MTCC 1323 by agar cup diffusion method
Streptococcus pyogenes [32] = assay: Antimicrobial activity against Streptococcus pyogenes MTCC 442 assessed as diameter of growth inhibition zone at 25 ug/ml after 18-24 hr by agar cup diffusion method; settings: read-out: DIZ
Staphylococcus aureus [33] = assay: Antimicrobial activity against Staphylococcus aureus MTCC 96 assessed as diameter of growth inhibition zone at 25 ug/ml after 18-24 hr by agar cup diffusion method; settings: read-out: DIZ
Candida albicans [34] = assay: Antimicrobial activity against Candida albicans MTCC 227 assessed as diameter of growth inhibition zone at 250 ug/ml after 48-96 hr by agar cup diffusion method; settings: read-out: DIZ
Pseudomonas aeruginosa [35] = assay: Antimicrobial activity against Pseudomonas aeruginosa MTCC 1688 assessed as diameter of growth inhibition zone at 100 ug/ml after 18-24 hr by agar cup diffusion method; settings: read-out: DIZ
Penicillium [36] = assay: Antimicrobial activity against Penicillium wild strain by agar cup diffusion method
Trichophyton rubrum [37] = assay: Antimicrobial activity against Trichophyton rubrum MTCC 296 assessed as diameter of growth inhibition zone at 50 ug/ml after 48-96 hr by agar cup diffusion method; settings: read-out: DIZ
Klebsiella pneumoniae [38] = assay: Antimicrobial activity against Klebsiella pneumoniae MTCC 109 assessed as diameter of growth inhibition zone at 50 ug/ml after 18-24 hr by agar cup diffusion method; settings: read-out: DIZ
Pseudomonas aeruginosa [39] = assay: Antimicrobial activity against Pseudomonas aeruginosa MTCC 1688 assessed as diameter of growth inhibition zone at 50 ug/ml after 18-24 hr by agar cup diffusion method; settings: read-out: DIZ
Escherichia coli [40] = assay: Antimicrobial activity against Escherichia coli MTCC 443 by agar cup diffusion method
Candida albicans [41] = assay: Antimicrobial activity against Candida albicans MTCC 227 assessed as diameter of growth inhibition zone at 25 ug/ml after 48-96 hr by agar cup diffusion method; settings: read-out: DIZ
Streptococcus pyogenes [42] = assay: Antimicrobial activity against Streptococcus pyogenes MTCC 442 by agar cup diffusion method
Candida albicans [43] = assay: Antimicrobial activity against Candida albicans MTCC 227 assessed as diameter of growth inhibition zone at 50 ug/ml after 48-96 hr by agar cup diffusion method; settings: read-out: DIZ
Staphylococcus aureus [44] = assay: Antimicrobial activity against Staphylococcus aureus MTCC 96 assessed as diameter of growth inhibition zone at 50 ug/ml after 18-24 hr by agar cup diffusion method; settings: read-out: DIZ
Penicillium [45] = assay: Antimicrobial activity against Penicillium wild strain assessed as diameter of growth inhibition zone at 50 ug/ml after 48-96 hr by agar cup diffusion method; settings: read-out: DIZ

O=C(/C=C/c1ccc2ccccc2c1)C1C(=O)NC(=S)NC1=O
zone of inhibition at 25 µg/mL (Pseudomonas aeruginosa [1]): 10 mm
MBC (Staphylococcus aureus [2]): 250 µg/mL (≈ 771 µM)
MIC (Staphylococcus aureus [2]): 200 µg/mL (≈ 617 µM)
zone of inhibition at 250 µg/mL (Aspergillus clavatus [3]): 25 mm
zone of inhibition at 250 µg/mL (Pseudomonas aeruginosa [4]): 19 mm
zone of inhibition at 25 µg/mL (Trichophyton rubrum [5]): 18 mm
zone of inhibition at 25 µg/mL (Escherichia coli [6]): 14 mm
zone of inhibition at 250 µg/mL (Escherichia coli [7]): 21 mm
MFC (Candida albicans [8]): > 1000 µg/mL
MIC (Candida albicans [8]): > 1000 µg/mL
zone of inhibition at 25 µg/mL (Klebsiella pneumoniae [9]): 14 mm
zone of inhibition at 250 µg/mL (Staphylococcus aureus [10]): 19 mm
zone of inhibition at 50 µg/mL (Streptococcus pyogenes [11]): 16 mm
MBC (Pseudomonas aeruginosa [12]): 125 µg/mL (≈ 385 µM)
MIC (Pseudomonas aeruginosa [12]): 100 µg/mL (≈ 308 µM)
zone of inhibition at 250 µg/mL (Klebsiella pneumoniae [13]): 20 mm
zone of inhibition at 50 µg/mL (Aspergillus clavatus [14]): 20 mm
MBC (Klebsiella pneumoniae [15]): 200 µg/mL (≈ 617 µM)
MIC (Klebsiella pneumoniae [15]): 125 µg/mL (≈ 385 µM)
zone of inhibition at 250 µg/mL (Streptococcus pyogenes [16]): 21 mm
zone of inhibition at 100 µg/mL (Penicillium [17]): 21 mm
zone of inhibition at 25 µg/mL (Penicillium [18]): 18 mm
zone of inhibition at 100 µg/mL (Trichophyton rubrum [19]): 22 mm
zone of inhibition at 50 µg/mL (Escherichia coli [20]): 16 mm
zone of inhibition at 25 µg/mL (Aspergillus clavatus [21]): 18 mm
zone of inhibition at 250 µg/mL (Penicillium [22]): 23 mm
zone of inhibition at 100 µg/mL (Escherichia coli [23]): 18 mm
MFC (Trichophyton rubrum [24]): 1000 µg/mL (≈ 3080 µM)
MIC (Trichophyton rubrum [24]): 1000 µg/mL (≈ 3080 µM)
zone of inhibition at 100 µg/mL (Klebsiella pneumoniae [25]): 18 mm
zone of inhibition at 100 µg/mL (Aspergillus clavatus [26]): 25 mm
zone of inhibition at 100 µg/mL (Staphylococcus aureus [27]): 15 mm
zone of inhibition at 100 µg/mL (Streptococcus pyogenes [28]): 18 mm
zone of inhibition at 250 µg/mL (Trichophyton rubrum [29]): 23 mm
zone of inhibition at 100 µg/mL (Candida albicans [30]): 24 mm
MFC (Aspergillus clavatus [31]): > 1000 µg/mL
MIC (Aspergillus clavatus [31]): > 1000 µg/mL
zone of inhibition at 25 µg/mL (Streptococcus pyogenes [32]): 14 mm
zone of inhibition at 25 µg/mL (Staphylococcus aureus [33]): 10 mm
zone of inhibition at 250 µg/mL (Candida albicans [34]): 25 mm
zone of inhibition at 100 µg/mL (Pseudomonas aeruginosa [35]): 15 mm
MFC (Penicillium [36]): 1000 µg/mL (≈ 3080 µM)
MIC (Penicillium [36]): 1000 µg/mL (≈ 3080 µM)
zone of inhibition at 50 µg/mL (Trichophyton rubrum [37]): 20 mm
zone of inhibition at 50 µg/mL (Klebsiella pneumoniae [38]): 15 mm
zone of inhibition at 50 µg/mL (Pseudomonas aeruginosa [39]): 12 mm
MBC (Escherichia coli [40]): 500 µg/mL (≈ 1540 µM)
MIC (Escherichia coli [40]): 250 µg/mL (≈ 771 µM)
zone of inhibition at 25 µg/mL (Candida albicans [41]): 22 mm
MBC (Streptococcus pyogenes [42]): 250 µg/mL (≈ 771 µM)
MIC (Streptococcus pyogenes [42]): 250 µg/mL (≈ 771 µM)
zone of inhibition at 50 µg/mL (Candida albicans [43]): 22 mm
zone of inhibition at 50 µg/mL (Staphylococcus aureus [44]): 12 mm
zone of inhibition at 50 µg/mL (Penicillium [45]): 18 mm
